Key:
Format in all cases: functional
Mus musculus = species: Mus musculus; assay: Inhibitory effect on electrically induced contraction of Mouse vas deferens (MVD)
Rattus norvegicus = species: Rattus norvegicus; assay: Inhibitory effect on the binding of 2 nM [3H]naloxone to rat brain membrane
Cavia porcellus = species: Cavia porcellus; assay: Inhibitory effect on electrically induced contraction of guinea pig ileum (GPI)
[1] = Relative potency calculated from the ratio of IC50 of [Leu]-enkephalin to that of the compound

SMILES	IC50 (Mus musculus)	IC50 (Rattus norvegicus)	IC50 (Cavia porcellus)	Potency [1]
CC(C)C[C@H](NC(=O)[C@H](Cc1ccccc1)NC(=O)CNC(=O)[C@@H](C)NC(=O)[C@@H](N)Cc1ccc(O)cc1)C(N)=O	2.88 nM	30 nM	5.23 nM	3.9
CC(C)C[C@H](NC(=O)[C@H](Cc1ccccc1)NC(=O)CNC(=O)[C@H](C)NC(=O)[C@@H](N)Cc1ccc(O)cc1)C(=O)NCCNc1ccc(N=[N+]=[N-])cc1[N+](=O)[O-]	2.59 nM	2.52 nM	4.35 nM	46.8
CC(C)C[C@H](NC(=O)[C@H](Cc1ccccc1)NC(=O)CNC(=O)CNC(=O)[C@@H](N)Cc1ccc(O)cc1)C(N)=O [[LEU5]ENKEPHALIN]	17 nM	118 nM	120 nM	1
C=CCN1CC[C@]23c4c5ccc(O)c4O[C@H]2C(=O)CC[C@@]3(O)[C@H]1C5 [NALOXONE]	–	6.39 nM	–	18.5

— ChEMBL document CHEMBL1122680, “A photoaffinity reagent to label the opiate receptors of guinea pig ileum and mouse vas deferens” (J Med Chem, 1984)
